Where “and” joins values, the source holds several entries; their conditions need not be identical. Identical values can stand only once.
System: BDF1 mice, Adenocarcinoma 755 s.c., tumor weight T/C
Assay: NCI In Vivo Anticancer Drug Screen. Data for tumor model Adenocarcinoma 755 (subcutaneous) in B6D2F1 (BDF1) mice
Conditions: endpoint: mean tumor weight, schedule: Q01DX011 (ip), higher = larger tumour
Summary of the method: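 Values express treated (T) relative to vehicle-dosed control (C) animals, based on survival or tumour size measured after compound treatment of mice bearing a transplanted tumour.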

[1] = dose: 60.0 mg/kg/injection, vehicle: carboxymethylcellulose (CMC)

In the case of `O=[As]O`, the T/C (dose: 0.12 mg/kg/injection, vehicle: carboxymethylcellulose (CMC)) was 116 % of control, the T/C (dose: 0.25 mg/kg/injection, vehicle: carboxymethylcellulose (CMC)) was 86 % of control and the T/C (dose: 0.5 mg/kg/injection, vehicle: carboxymethylcellulose (CMC)) was 98 % of control. The T/C (dose: 1.0 mg/kg/injection, vehicle: carboxymethylcellulose (CMC)) was 77 % of control, the T/C (dose: 1.63 mg/kg/injection, vehicle: carboxymethylcellulose (CMC)) was 70 % of control and the T/C (dose: 2.0 mg/kg/injection, vehicle: carboxymethylcellulose (CMC)) was 19 % of control. The T/C (dose: 2.0 mg/kg/injection, vehicle: methylcellulose (MC)) was 66 % of control, the T/C (dose: 3.15 mg/kg/injection, vehicle: carboxymethylcellulose (CMC)) was 124 % of control and the T/C (dose: 3.25 mg/kg/injection, vehicle: carboxymethylcellulose (CMC)) was 72 % of control. The T/C (dose: 5.0 mg/kg/injection, vehicle: carboxymethylcellulose (CMC)) was 21 % of control, the T/C (dose: 5.0 mg/kg/injection, vehicle: methylcellulose (MC)) was 52 % of control and the T/C (dose: 6.3 mg/kg/injection, vehicle: carboxymethylcellulose (CMC)) was 67 % of control. For the same compound, the T/C (dose: 8.66 mg/kg/injection, vehicle: carboxymethylcellulose (CMC)) was 63 % of control and 70 % of control, the T/C (dose: 12.6 mg/kg/injection, vehicle: carboxymethylcellulose (CMC)) was 67 % of control and the T/C (dose: 13.0 mg/kg/injection, vehicle: carboxymethylcellulose (CMC)) was 28 % of control and 35 % of control.
For `O=Cc1ccccc1`, the T/C (dose: 3.12 mg/kg/injection, vehicle: Klucel (hydroxypropylcellulose) (HPC)) was 80 % of control, the T/C (dose: 6.25 mg/kg/injection, vehicle: Klucel (hydroxypropylcellulose) (HPC)) was 52 % of control and the T/C (dose: 12.5 mg/kg/injection, vehicle: Klucel (hydroxypropylcellulose) (HPC)) was 72 % of control. The T/C (dose: 25.0 mg/kg/injection, vehicle: Klucel (hydroxypropylcellulose) (HPC)) was 109 % of control, the T/C (dose: 50.0 mg/kg/injection, vehicle: Klucel (hydroxypropylcellulose) (HPC)) was 106 % of control and the T/C (dose: 100.0 mg/kg/injection, vehicle: Klucel (hydroxypropylcellulose) (HPC)) was 80 % of control. The T/C (dose: 200.0 mg/kg/injection, vehicle: Klucel (hydroxypropylcellulose) (HPC)) was 55 % of control and the T/C (dose: 400.0 mg/kg/injection, vehicle: Klucel (hydroxypropylcellulose) (HPC)) was 56 % of control.
`Nc1nc(Nc2ccccc2Cl)cc(=O)[nH]1` was tested, and the T/C (dose: 15.0 mg/kg/injection, vehicle: methylcellulose (MC)) was 119 % of control and the T/C (dose: 62.0 mg/kg/injection, vehicle: methylcellulose (MC)) was 95 % of control.
With `Nc1nc(Br)c2[nH]cnc2n1` the T/C [1] was 1 % of control.
In the case of `CCCCn1cnc2c(SC3CCCC3)ncnc21`, the T/C (dose: 25.0 mg/kg/injection, vehicle: carboxymethylcellulose (CMC)) was 38 % of control, the T/C (dose: 50.0 mg/kg/injection, vehicle: carboxymethylcellulose (CMC)) was 13 % of control and the T/C (dose: 100.0 mg/kg/injection, vehicle: carboxymethylcellulose (CMC)) was 4 % of control. The T/C (dose: 200.0 mg/kg/injection, vehicle: carboxymethylcellulose (CMC)) was 3 % of control.
For `CCC(C)Cn1cnc2c(Sc3c([N+](=O)[O-])ncn3C)nc(N)nc21` (configuration not stated), the T/C (dose: 11.0 mg/kg/injection, vehicle: methylcellulose (MC)) was 58 % of control, the T/C (dose: 33.0 mg/kg/injection, vehicle: methylcellulose (MC)) was 10 % of control and the T/C (dose: 100.0 mg/kg/injection, vehicle: methylcellulose (MC)) was 1 % of control.
`CCOC=Nc1c(N)ncnc1F` was tested, and the T/C (dose: 30.0 mg/kg/injection, vehicle: carboxymethylcellulose (CMC)) was 92 % of control, the T/C [1] was 89 % of control and the T/C (dose: 120.0 mg/kg/injection, vehicle: carboxymethylcellulose (CMC)) was 57 % of control. For the same compound, the T/C (dose: 240.0 mg/kg/injection, vehicle: carboxymethylcellulose (CMC)) was 55 % of control.
